Entries after “also recorded” stand apart in the source; their conditions may differ.
Legend:
MCF7 cells = assay: Two-stage sequential treatment of MCF7 cells, cell number and viability (trypan blue); type: cell-based; details: LDN (10 nM) or 6BN (10 μM) for 48 h, then cannabinoid (cannabidiol 10 μM) for 48 h, compared with other sequences
Procedure: Each treatment lasted four days and consisted of two days of treatment with the first agent (UN=control, LDN=Low Dose Naltrexone at 10 nM CBD=Cannabidiol, 6BN=6-β-naltrexol) before the second-named agent was introduced for a further two days.
Another illustrative and non-limiting experiment was carried out on cultures of MCF7 cells. In brief, the cultures were treated with LDN or 6BN for two days, after which a cannabinoid was administered for a further two days. Cell number and viability were assessed on day four. The sequence of the administration for each therapeutic agent was reversed and the experiment repeated.
In full, MCF7 cells were seeded into 6-well plates at a density of 1.5×10^4/well and left to adhere. Cells were then cultured with naltrexone (10 nM), 6-β-naltrexol (10 μM) or cannabidiol (10 μM). Drug-containing media was removed after 48 h, and cells were rinsed gently with drug-free medium. Fresh culture medium was then added to the cells supplemented with either naltrexone (10 nM), 6-β-naltrexol (10 μM) or cannabidiol (10 μM), as indicated in the graph. Cell number and viability were assessed a further 48 h later, with percentages of live and dead cells being discriminated by trypan blue dye exclusion. Data were then consolidated to compare the effect of sequence on overall effect.

CB2 = assay: Western blot of CB2 levels in MCF7 cells after drug treatment; type: cell-based; details: two days; for levels of CB2 relative to controls: LDN 10 nM, 6BN 1 μM or 10 μM, Western blot densitometry normalised to GAPDH, vs no-drug controls
Procedure: Levels of Bcl2-associated death promoter (BAD), p21 protein, the opioid receptors kappa 1 (OPRK1) and mu 1 (OPRM1), and the cannabinoid receptors CBR1 (CB1) and CBR2 (CB2) are visualised by Western blot (left) against GAPDH as a loading control, and quantified via density analysis relative to GAPDH (right).
One illustrative and non-limiting experiment was carried out on cultures of MCF7 cells. In brief, either LDN at 10 nM or 6BN at 1 μM or 10 μM was administered in vitro to a culture for two days, after which the expression levels of BAD, p21, opioid receptors kappa and mu, CB1, CB2, and GAPDH (as a loading control) were analysed via Western blot and subsequent quantification via density measurement of the bands.
In full, MCF7 cells were seeded into 6-well plates at a density of 1×10^5/well and left to adhere over-night. Naltrexone (10 nM) or 6-β-naltrexol (1 μM or 10 μM) were added to the cells before harvesting cells for western blot analysis. Primary probing was performed with specific antibodies generated against BAD, p21, OPRK1, […], CBR-1 and CBR-2. […] Anti-GAPDH was used as a loading control. All antibodies were used at a dilution of 1:1000, followed by the appropriate HRP conjugated secondary antibodies also at a dilution of 1:1000. Bands were visualised by the SuperSignal chemiluminescent detection system, and densitometry of band intensity was determined using Adobe Photoshop CS3, v10.0, and normalised to the loading control.

Compound | inhibition of cancer cell proliferation, effect of schedule (MCF7 cells) | rise in CB2 compared among the three treatments (CB2; 10 μM 6BN compared with 1 μM 6BN and 10 nM LDN) | levels of CB2 relative to controls (CB2)
Oc1ccc2c3c1OC1C(O)CC[C@@]4(O)[C@@H](C2)N(CC2CC2)CC[C@]314 (some centres unmarked) [6BN, N-cyclopropylmethyl-7,8-dihydro-14-hydroxynorisomorphine] | most effective; also recorded: greater effect | highest | significant increase
O=C1CC[C@@]2(O)[C@H]3Cc4ccc(O)c5c4[C@@]2(CCN3CC2CC2)[C@H]1O5 [LDN, 17-cyclopropylmethyl-4.5α-epoxy-3,14-dihydroxymorphinan-6-one] | most effective; also recorded: more effectively; also recorded: greater effect | – | significant increase; also recorded: increased significantly

Source: patent US12324805B2, “Cancer treatment” (LDN Pharma Limited, priority 2017, dated 2025)
